# Patent publication US10568857B2, “Method of treating renal system damage” (The University of Utah Research Foundation, priority 2008, dated 2020)
# Entries after “also recorded” stand apart in the source; their conditions may differ.
# Legend:
# [1] = system: human proximal tubular cells (HK2); assay type: cell-based; details: pretreatment 1 h with 1.5 μM OA-NO2, then 24 h 1 μM cisplatin
# Experimental: FIG. 6. Bar graphs show the effects of nitrated fatty acid OA-NO2 on cisplatin-induced apoptosis in vivo and in vitro. A), Caspase activity in the mouse kidney. N=5-6 in each group. B), Caspase activity in cultured human proximal tubular cells (HK2). Following pretreatment for 1 h with vehicle or 1.5 μM OA-NO2, the cells were exposed for 24 h to 1 μM cisplatin. N=3 in each group. Data are mean±SE. A single dose of i.p. injection of cisplatin induced renal dysfunction as indicated by the marked rise in plasma BUN (FIG. 1), accompanied by severe renal histological abnormalities characterized by distortion of the overall renal morphology, dilation of renal tubules, and appearance of protein cast (FIG. 2).
# [2] = system: B6129SF2/J mice (cisplatin-induced toxicity); test: Effects of OA-NO2 on cisplatin-induced toxicity in mice; assay type: in vivo, mouse; details: cisplatin 20 mg/kg i.p.
# Experimental: FIG. 1. A bar graph showing the plasma concentrations of Blood Urea Nitrogen (BUN) in mice under the conditions indicated. N=5-6. Data are mean±n SE. B6129S2/J mice (male, 3-4-mo-old) received vehicle (Control) or a single i.p. injection of cisplatin alone (20 mg/kg in saline). After 20 min, the cisplatin group was randomly divided to receive an i.p injection of OA-NO2 (400 mg/kg in ethanol) or an equivalent amount of ethanol at 6-h intervals for 48 h.
# Male 3-4-month-old B6129SF2/J mice were from Jackson Laboratories (Bar Harbor, Me.). All animals were housed in an air-conditioned room with a 12-hour light/dark cycle. All procedures and protocols were in accordance with guidelines set by the Laboratory Animal Care Committee at the University of Utah.
# Protocol for testing effects of OA-NO2 on cisplatin-induced toxicity in B6129SF2/J mice. B6129S2/J mice (male, 3-4-mo-old) received vehicle (saline) or a single i.p. (intraperitoneal) injection of cisplatin alone (20 mg/kg in saline). After 20 minutes, the cisplatin group was randomly divided to receive an i.p. injection of OA-NO2 (400 mg/kg in ethanol) or an equivalent amount of ethanol at 6-hour intervals for 48 hours. The control group also received an i.p. injection of the equivalent amount of ethanol at the same frequencies. At the end of the experiments, under isoflurane anesthesia, blood was withdrawn from the vena cava using 1 cc insulin syringe and kidneys were harvested for analysis of morphology and gene expression.
# [3] = system: BALB/c mice (ADR nephropathy); test: Adriamycin (ADR) nephropathy in mice, OA-NO2 pretreatment via osmotic mini-pump; assay type: in vivo, mouse; details: for albuminuria (urinary albumin): control 33.39±3.50; for plasma albumin: control 1.01±0.15
# Experimental: Male BABL/C mice were purchased from the Jackson Laboratories (Bar Harbor, Me., USA). Mice were maintained in a temperature-controlled barrier facility with a 12:12-h light-dark cycle and were given free access to standard laboratory chow and tap water. Mice were randomized into three groups: 1) control, 2) Adriamycin (ADR), and 3) ADR+ nitro-oleic acid (OA-NO2). In Group 3, OA-NO2 (dissolved in ethanol) was administered at 5 mg/kg/day via subcutaneously implanted osmotic mini-pump and vehicle (ethanol) was given to the other two groups. This dose was chosen based a previous study (35). After 2 days of pretreatment with OA-NO2, Groups 2 and 3 received a single tail vein injection of ADR at 10 mg/kg. Group 1 received a single tail vein injection of saline. Twenty four-hour urine was collected with using metabolic cages. Seven days after ADR treatment, all mice were killed and kidneys were immediately harvested gene expression or histological analyses. All protocols employing mice were conducted in accordance the principles and guidance of the University of Utah Institutional Animal Care and Committee.
# Urine samples were centrifuged for 5 minutes at 10,000 rpm. Blood samples from anesthetized mice were collected by puncturing the vena cava using a 1-ml insulin syringe containing 50 μl of 1 mM EDTA in the absence of protease inhibitors. Urine and plasma albumin was determined using a murine microalbuminuria enzyme-linked immunosorbent assay kit (Cat#1011, EXOCELL). Plasma triglyceride level was determined using a LabAssay Triglyceride ELISA Kit (Cat#290-63701, WAKO). Urine and plasma levels of urea were measured by Urea Nitrogen Direct kit (Cat#0580-250, Stanbio Laboratory), and urine and plasma levels of creatinine were measured by Creatinine Liquicolor kit (Cat#0420-250, Stanbio Laboratory).
# Under anesthesia, kidneys were removed and fixed with 4% paraformaldehyde. The tissues were subsequently embedded in paraffin and 4-μm sections were cut and stained with periodic acid Schiff (PAS). Glomerular sclerosis was assessed as follows using a semiquantitative score: grade 0, normal appearance; grade I, involvement of up to 25% of the glomerulus; grade II, involvement of 25 to 50% of the glomerulus; grade III, involvement of 50 to 75% of the glomerulus; grade IV, involvement of 75 to 100% of the glomerulus. A glomerulosclerosis index (GSI) was calculated by multiplying the number of glomeruli with a sclerosis score of I by one, the number with a score of II by two, III by three, and IV by four. These values were summed and divided by the number of glomeruli assessed, including those with a sclerosis score of zero. The SI for each kidney specimen was a sum of the points from 30 glomeruli. Tubulointerstitial injury (defined as tubular atrophy, dilatation, thickening of the basement membrane, protein cast) by semiquantitative analysis. Thirty cortical fields from each animal were examined at ×200 magnification and graded according to a scale of 0 to 4: 0, no tubulointerstitial injury 1, <25% of the tubulointerstitium injured; 2, 25% to 50% of the tubulointerstitium injured; 3, 51% to 75% of the tubulointerstitium injured; and 4, 76% to 100% of the tubulointerstitium injured. All sections were examined in blind manner.
# Immunohistochemical staining was performed. Anti-WT1 antibody was purchased from Dako (Mob437, Dako).
# Total RNA was isolated using TRIzol (Invitrogen, Carlsbad, Calif.), and first-strand cDNAs were synthesized from 2 μg of total RNA in […] reaction using SuperScript (Invitrogen). The first strand cDNAs served as the template for quantitative PCR performed in Applied Biosystems 7900 Real Time PCR System using SYBR green PCR reagent (Applied Biosystems, Foster City, Calif., USA). The amplification was carried out for 40 cycles with conditions of 15-s denaturation at 95° C. […]
# [4] = OA-NO2 400 mg/kg i.p. at 6-h intervals for 48 h
# [5] = OA-NO2 400 mg/kg i.p. at 6-h intervals for 48 h, real time RT-PCR
# [6] = posttreatment OA-NO2 400 mg/kg i.p. at 6-h intervals for 48 h
# [7] = ADR+OA-NO2 group vs ADR, P<0.05
# [8] = OA-NO2 treatment in ADR mice, P<0.05
# [9] = OA-NO2 treatment in ADR mice, real-time PCR and Western blotting, P<0.05
molecule,measurement,setting,value
nitrooleic acid [OA-NO2],cisplatin-induced caspase activity,[1],almost completely normalized
same,activity of caspase in the mouse kidney,[2]; [4],attenuated or completely corrected
same,kidney thiobarbituric acid-reactive substances (TBARS),[2]; [4],attenuated or completely corrected
same,plasma level of MPO,"[2]; OA-NO2 400 mg/kg i.p. at 6-h intervals for 48 h, EIA",reduces; also recorded: attenuated or completely corrected
same,kidney expression of NADPH oxidase subunit gp91phox,[2]; [5],attenuated or completely corrected
same,kidney expression of NADPH oxidase subunit p47phox,[2]; [5],attenuated or completely corrected
same,plasma BUN (renal function),[2]; [6],improves renal function; also recorded: markedly attenuated
same,"renal histological abnormalities (renal morphology, dilation of tubules, protein cast)",[2]; [6],improves renal morphology; also recorded: markedly attenuated
same,renal ZO-1 mRNA (qRT-PCR),[3]; ADR+OA-NO2 group,significant elevation
same,"number of WT1-positive cells (podocytes), immunohistochemistry",[3]; ADR+OA-NO2 group vs ADR group,partially restored
same,plasma BUN,[3]; ADR+OA-NO2 group vs ADR group,significantly attenuated
same,plasma creatinine,[3]; ADR+OA-NO2 group vs ADR group,significantly attenuated
same,renal gp91phox protein (immunoblot),"[3]; ADR+OA-NO2 group vs ADR, P<0.01",further confirmed at the protein level
same,renal mRNA expression of gp91phox,[3]; [7],the increase was less
same,renal mRNA expression of p47phox,[3]; [7],the increase was less
same,plasma triglyceride,"[3]; ADR+OA-NO2 group, OA-NO2 5 mg/kg/day",212.70 ± 39.22 mg/dL
same,albuminuria (urinary albumin),"[3]; ADR+OA-NO2 group, day 5 after ADR 10 mg/kg i.v., OA-NO2 5 mg/kg/day s.c. mini-pump from 2 days before",342.40±33.26 μg/24 h
same,plasma albumin,"[3]; ADR+OA-NO2 group, day 7 after ADR, OA-NO2 5 mg/kg/day",0.58 ± 0.13 g/dL
same,mice having mild ascites at sacrifice,"[3]; ADR+OA-NO2 mice, OA-NO2 5 mg/kg/day",20%
same,"glomerulosclerotic index (GSI), PAS staining","[3]; ADR+OA-NO2 vs ADR, P<0.05",ameliorates glomerulosclerosis; also recorded: marked reduction
same,"albuminuria (urinary albumin), time course","[3]; ADR+OA-NO2 vs ADR, day 3 and day 7 after ADR injection",ameliorates albuminuria; also recorded: These changes were observed at day 3 and maintained at day 7
same,tubulointerstitial lesion (TILI),"[3]; ADR+OA-NO2 vs ADR, day 8 after ADR injection",ameliorates
same,renal expression of IL-1β (qRT-PCR),[3]; OA-NO2 in ADR mice,suppressed
same,renal expression of MCP-1 (qRT-PCR),[3]; OA-NO2 in ADR mice,suppressed
same,renal expression of TNF-α (qRT-PCR),[3]; OA-NO2 in ADR mice,suppressed
same,renal WT1 protein (immunoblotting),"[3]; OA-NO2 pretreatment in ADR mice, P<0.05",prevented the downregulation
same,renal desmin mRNA (qRT-PCR),[3]; OA-NO2 treatment in ADR mice,prevented this increase
same,renal TGF-β mRNA expression,[3]; [8],dramatic suppression
same,renal collagen III mRNA expression,[3]; [8],dramatic suppression
same,renal fibronectin (FN) expression,[3]; [9],prevented the up-regulation
same,renal α-SMA expression,[3]; [9],prevented the up-regulation
same,kidney TBARS,[3]; OA-NO2 treatment vs ADR mice,trend of reduction of TBARS levels in response to OA-NO2 treatment but this did not reach a statistical significance
same,plasma TBARS,[3]; OA-NO2 treatment vs ADR mice,markedly attenuated
same,urinary TBARS,[3]; OA-NO2 treatment vs ADR mice,markedly attenuated
"COc1cccc2c1C(=O)c1c(O)c3c(c(O)c1C2=O)C[C@@](O)(C(=O)CO)C[C@@H]3O[C@H]1C[C@H](N)[C@H](O)[C@H](C)O1 [ADR, doxorubicin (Adriamycin), reference compound]",plasma triglyceride,[3]; ADR group (ADR 10 mg/kg alone),396.18 ± 70.94 mg/dL
same,plasma albumin,"[3]; ADR group (ADR 10 mg/kg alone), day 7",0.28 ± 0.08 g/dL
same,albuminuria (urinary albumin),"[3]; ADR group (ADR 10 mg/kg tail vein alone), day 5",508.89±48.52 μg/24 h
same,mice with severe ascites at sacrifice,[3]; ADR mice (ADR 10 mg/kg alone),Ninety
